Measurements: patent US20250066411A1, “GL[…] FOR L-SIGN” (priority 2022, published 2025)

Key:
Format in all cases: binding
L-SIGN ECD [1] = molecular target: T1, L-SIGN ECD (Homo sapiens, UniProt Q9H2X3); assay: SPR competition experiments on a sensorchip functionalized with SARS-CoV-2 Spike protein, L-SIGN ECD co-injected; details: for IC50: 20 μM L-SIGN ECD co-injected, Spike HexaPro surface, 25° C., read-out: IC50 (inhibition of L-SIGN); for selectivity for L-SIGN over DC-SIGN: SPR competition, L-SIGN vs DC-SIGN ECD; for inhibits the L-SIGN receptor better than D-mannose: relative to D-mannose IC50
T1 construct: towards the extra cellular domain (ECD) of the DC-SIGN and L-SIGN receptors
T1 sequence (Q9H2X3 71-399 limits assumed): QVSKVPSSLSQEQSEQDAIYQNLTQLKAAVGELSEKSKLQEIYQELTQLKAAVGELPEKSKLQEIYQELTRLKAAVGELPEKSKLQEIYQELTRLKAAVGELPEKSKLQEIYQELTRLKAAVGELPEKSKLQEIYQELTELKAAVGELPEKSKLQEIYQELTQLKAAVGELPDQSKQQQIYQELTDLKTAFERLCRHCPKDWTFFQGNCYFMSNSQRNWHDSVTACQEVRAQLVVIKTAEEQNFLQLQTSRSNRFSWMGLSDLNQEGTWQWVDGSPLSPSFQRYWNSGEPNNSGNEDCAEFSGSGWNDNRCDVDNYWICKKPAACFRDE

L-SIGN ECD [2] = molecular target: T1, L-SIGN ECD; assay: Isothermal Titration Calorimetry (ITC) with L-SIGN ECD
Description: The interaction of compound 106a with the L-SIGN receptor was also confirmed by Isothermal Titration Calorimetry (ITC) experiments (FIG. 2).
These experiments were carried out on a MicroCal PEAQ-ITC apparatus, at 25° C., in buffer A (25 mM Tris pH 8, 150 mM NaCl, 4 mM CaCl2). L-SIGN ECD (172 μM) was titrated with consecutive 2 μL injections of a 2 mM solution of compound 106a in Calcium buffer (30 μL of 20 mM compound 106a+270 μL of Calcium buffer).
The analysis was performed in triplicate and the graphs shown in FIG. 2 (which report, respectively, Differential Power (DP) vs. time, and ΔH vs. molar ratio) are representative of the average of the three experiments.

L-SIGN ECD [3] = molecular target: T1, L-SIGN ECD; assay: SPR direct interaction experiments on oriented immobilized biotinylated ECD; details: read-out: apparent Kd for L-SIGN; Steady State Affinity model, ligands 2 nM to 500 nM
Description: For this experiment the extracellular domain (ECD) of DC-SIGN and L-SIGN were immobilized onto the SPR surface in an oriented manner, by their N-terminus, taking advantage of biotine/streptavidin interaction. To generate DC/L SIGN specifically biotinylated at the N-terminus, 3 glycine residues at the N-terminus of the protein were added by site directed mutagenesis in order to allow a sortaging procedure. The biotinylated versions of DC/L-SIGN ECDs (Biot-ECDs) were prepared by sortaging as described in Achilli, S., Monteiro, J. T., Serna, S., Mayer-Lambertz, S., Thépaut, M., Le Roy, A., Ebel, C., Reichardt, N.-C., Lepenies, B., Fieschi, F., and Vives, C. (2020) […], Artificial Tetrameric Lectins: A Tool to Screen Ligand and Pathogen Interactions. IJMS 21, 1-19 using a commercial synthetic biotinylated peptide,
To generate the oriented SPR surfaces, the flow cells were functionalized with Streptavidin in 10 mM Acetate buffer pH 4 and the remaining activated groups were blocked with 1 M ethanolamine pH 8. After blocking, the flow cells were treated with 100 μL of 10 mM HCl to remove non-specifically bound proteins and 100 μL of 50 mM NaOH/1M NaCl to expose surface to regeneration protocol. Priming of the surface was done using the running buffer (25 mM Tris pH 8, 150 mM NaCl, 4 mM CaCl2), 0.05% Tween). […] Surfaces are ready for interaction. […]

SMILES	IC50 (L-SIGN ECD [1]) [µM]	selectivity for L-SIGN over DC-SIGN (L-SIGN ECD [1])	also measured
NCc1cn(C2C(OCCCl)OC(CO)C(O)C2O)nn1 (centres unmarked) [Compound 103, reference compound]	278		
N=C(N)NCc1cn([C@H]2C(OCCCl)OC(CO)[C@@H](O)[C@@H]2O)nn1 (some centres unmarked) [Compound 106a]	24	up to 58 fold	inhibits the L-SIGN receptor better than D-mannose (L-SIGN ECD [1]): 80 times; inhibits the L-SIGN receptor better than compound 103 (L-SIGN ECD [1]; relative to compound 103 IC50): 11 times; Kd (L-SIGN ECD [2]): 12.8 ± 1.5 µM; enthalpy contribution (ΔH) of the interaction (L-SIGN ECD [2]; ITC): very favorable; stoichiometry of interaction between ligand and L-SIGN receptor (L-SIGN ECD [2]; ITC): 1,13
OCC1O[C@H](OCCCl)C(n2cc(CNc3nc4ccccc4[nH]3)nn2)C(O)[C@@H]1O (some centres unmarked) [Compound 113]	48	more selective against DC-SIGN	
OCC1O[C@H](OCCCl)C(n2cc(CNc3ncc[nH]3)nn2)C(O)[C@@H]1O (some centres unmarked) [Compound 115]	15	up to 75 fold	
OCC1O[C@H](OCCCl)C(n2cc(CNc3ncc[nH]3)nn2)C(O)[C@@H]1O (some centres unmarked) [Compound 119]	18		inhibits the L-SIGN receptor better than D-mannose (L-SIGN ECD [1]): over two orders of magnitude
N=C(N)NCc1cn(C2C(OCCn3cc(-c4cc(OCCOCCO)c(C#Cc5cc(OCCOCCO)c(C#Cc6cc(OCCOCCO)c(-c7cn(CCOC8OC(CO)C(O)C(O)C8n8cc(CNC(=N)N)nn8)nn7)cc6OCCOCCO)cc5OCCOCCO)cc4OCCOCCO)nn3)OC(CO)C(O)C2O)nn1 (centres unmarked) [Compound 133]			Kd (L-SIGN ECD [3]): 0.052 µM
N=C(N)NCc1cn(C2C(OCCn3cc(COCCOCCOCCn4cc(-c5cc(OCCOCCO)c(C#Cc6cc(OCCOCCO)c(C#Cc7cc(OCCOCCO)c(-c8cn(CCOCCOCCOCc9cn(CCOC%10OC(CO)C(O)C(O)C%10n%10cc(CNC(=N)N)nn%10)nn9)nn8)cc7OCCOCCO)cc6OCCOCCO)cc5OCCOCCO)nn4)nn3)OC(CO)C(O)C2O)nn1 (centres unmarked) [Compound 135]			Kd (L-SIGN ECD [3]): 0.025 µM
OCC1O[C@H](OCCCl)C(n2cc(CNC3=NCCCN3)nn2)C(O)[C@@H]1O (some centres unmarked) [Compound 139]	12	up to 94 fold	
COc1ccc2[nH]c(NCc3cn(C4C(O)[C@H](O)C(CO)O[C@@H]4OCCCl)nn3)nc2c1 (some centres unmarked) [Compound 146]	52		
O=C[C@@H](O)[C@@H](O)[C@H](O)[C@H](O)CO [D-mannose, reference compound]	1940		
